Laboratory results reported in patent US20230312652A1, “NOVEL PEPTIDES AND USES THEREOF” (Aarhus Universitet, priority 2020, published 2023).
Where a SMILES comes first, the peptide text is derived from it.

Columns and labels:
[1] = test system: primary hippocampal neurons; assay: Lysosomal acidification in wild-type hippocampal neurons, LysoSensor DND-189 live imaging; type: cell-based, mouse; conditions: 1 uM
Experimental: Primary hippocampal neurons were seeded in an 8-well ibidi chamber pre-coated with Poly-I and laminin. 75.000 neurons were seeded pr. well. After 5 days in vitro the neurons were stimulated for 4, 8 or 24 hours with peptide P1 at 1 uM in neurobasal A with B27. After stimulation, the medium was changed to pre-warmed (37° C.) neurobasal A containing 1 uM of LysoSensor probe DND-189 (an acidotropic probes that accumulates in acidic organelles as the result of protonation) and incubated for 30 min. at 37° C. in a 5% C02 atmosphere. Hereafter, the media was changed to pre-warmed FluoroBrite Medium and the neurons were imaged in Olympus microscopy system. Pictures were taken of the lysosomes and processed using the ScanR imaging software to give fluorescence (intensity) of each lysosomal vesicle. The summed total intensity of all lysosomes was calculated and divided by the total number of neurons imaged yielding the total intensity of lysosomes per neuron. Student's t-test was used for statistical analysis.

CREB = CREB activation in striatum and hippocampus of wild-type mice after IV injection; type: in vivo, mouse; conditions: 0.26 mg/kg IV, 1 hour after injection
Experimental: To assess this, 8 weeks old wild-type mice were injected intravenously with either 0.26 mg/kg of peptide P1 or LP1 dissolved in saline. 1 hour after the injection, the mice were sacrificed by cervical dislocation and striatal tissue was isolated by dissection and immediately lysed using a TissueLyser in lysis buffer containing cOmplete and DTT. The samples were subsequently homogenized by sonication. The phosphorylation of CREB on serine 133 was subsequently validated by western blotting. The levels of phosphorylated CREB were normalized to the corresponding beta-actin levels. Student's t-test was used for statistical analysis.

[2] = test system: AMPK (T172) and CREB (S133); assay: P1 activation of AMPK and CREB with or without CaMKK2-inhibitor STO-609 in cortical neurons; type: cell-based, mouse
Experimental: Mouse cortical neurons were isolated from p0 wild-type mice and seeded in a density of 250,000 per well in a 12-well tray. After 7 days in vitro the neurons were either pre-treated with STO-609 (5 uM) for 1 hour or with DMSO (control). After 1 hour, the neurons were stimulated with P1 or a scrambled peptide (Scr), with or without STO-609, in neurobasal A media and incubated at 37° C. and 5% CO2 for 20 minutes. Hereafter, the neurons were lysed in lysis buffer containing DTT and cOmplete cocktail protease inhibitor. Phosphorylation of AMPK (T172) and CREB (S133) was validated by western blotting and normalized to beta-actin.

[3] = test system: GRN+/- hippocampal neurons; assay: Dendritic branching of GRN+/- hippocampal neurons; type: cell-based, mouse; conditions: 1 uM, 72 hours
Experimental: To further validate the therapeutic potential of peptide P1 in frontotemporal dementia, its neurotrophic activity in GRN heterozygous hippocampal neurons isolated from p0 mice was investigated. Heterozygous loss of function mutations in the progranulin gene, GRN, cause frontotemporal dementia^68. To assess this, we measured the dendritic branching of GRN+/− hippocampal neurons in vitro following treatment. 10000 neurons were seeded per coverslip. After 24 hours the medium was changed to medium containing 1 uM of peptide P1. Hereafter, the cells were incubated at 37° C. for 72 hours before being fixed in 4% PFA for 20 minutes at room temperature. The neurons were subsequently stained against MAP2 to determine cell morphology. Images were taken using a confocal microscope and the neurite branches were analysed using Zen Image Processing (Carl Zeiss). The total number of branches were calculated per neuron. Student's t-test was used for statistical analysis.

[4] = Plasma binding, mouse plasma, ultracentrifugation; type: in vitro ADME
Experimental: For plasma binding, 2 μM P1 or Warfarin (positive control) were added to mouse or human plasma. After 30 minutes incubation at 37° C., samples where ultracentrifuged for 4 hours to generate protein-free samples for LCMS analysis. In parallel, plasma was incubated for 4.5 h to determine total levels after incubation. Plasma binding was calculated as % Bound=100*(1−F/T4.5), where F is concentration of free ligand and T4.5 is the concentration of total ligand after incubation.

[5] = Stability in L-His buffer formulation with hyaluronidase; type: physicochemical; conditions: up to 7 days
Experimental: Buffer solution containing 4.4 mM L-histidine, 140 mM NaCl, 0.2% w/V Tween 20 and 1500 IU/mL hyaluronidase was incubated with 1 mM P1 at −20° C., 4° C. and 25° C. for up to 7 days. LCMS was used to ascertain the amount of P1 remaining in the solutions.

[6] = Liver microsome stability, human; type: in vitro ADME; conditions: 2 μM, up to 60 minutes
Experimental: (§1) Reactions were stopped at timepoints between 0-60 min. and samples analysed by LCMS.

[7] = test system: R6/2 mice (mouse model of Huntington's); assay: Brain weight and activity studies in R6/2 mice (open field, clasping, rotarod); type: in vivo; conditions: 13 mg/kg SC daily
Experimental: The R6/2 mice were injected with a daily dose of 13 mg/kg of P1 subcutaneously in 4.38 mM L-His, 140 mM NaCl, 0.2% Tween-20 and 1500 IU hyaluronidase (pH 6.15) between 8 weeks to 12 weeks of age. At 12 weeks of age, mice were sacrificed and their brains removed and both hippocampus—cortex and striatal tissue was isolated and lysed in RIPA lysis buffer containing containing cOmplete and phosSTOP.
Prior to treatment (8 weeks of age), the R6/2 mice were weighed and assessed for clasping and rotarod behavior before randomization to 4 cages of n=6 each (two cages pr treatment group). The experimenter remained blinded throughout the studies and data analysis. Motor coordination was measured by hind-limb clasping and rotarod between week 7-12.
Clasping: Mice were once weekly assessed for clasping behavior. Mice were placed on the top grid of a cage and then held by the tail and lifted over the top of the homecage for 10 successive trials of 3 seconds with 3 second rest intervals
Rotarod: Accelerating test—cylinder accelerates from 4 to 40 RPM in 5 minutes with linear speed progression. During the first week of training, mice undergo 3 trials per day for 3 consecutive days. During training sessions, mice receive “second changes” when falling from the rotarod. The following weeks, mice are tested on only one day for 3 consecutive trials. The mean latency to fall is used for data analysis.
At 11 weeks of age, mice were subjected to an open field consisting of a 40×40 cm box with transparent Plexiglas walls of 50 cm height. Their behaviour was recorded using an automated tracking software and camera (Anymaze, Havard apparatus). Distance travelled and number of rears were recorded over a 20 min. period.
Brain weight: At 12 weeks of age, mice were sacrificed and the entire brain was carefully extracted and weighed using a fine-scale weigh.

[8] = Liver microsome stability, mouse; type: in vitro ADME; conditions: 2 μM, up to 60 minutes
Experimental: as §1

[9] = 11 weeks of age, 20 min, vs vehicle

## CSCC[C@@H]1NC(=O)[C@H](C(C)C)NC(=O)[C@H](CC(=O)O)NC(=O)[C@H](CCC(=O)O)NC(=O)[C@H](CCC(=O)O)NC(=O)[C@H](Cc2c[nH]cn2)NC(=O)[C@H](CCC(=O)O)NC(=O)[C@H](C(C)C)NC(=O)[C@@H]2CCCN2C(=O)[C@H](CCC(=O)O)NC(=O)[C@H]([C@@H](C)O)NC1=O [Peptide P1, [MTEPVEHEEDV]] (cyclo(MTEPVEHEEDV))
[1]; 4 hours
  lysosomal intensity (lysosomal acidification): lysosomal intensity was increased
[1]; 8 hours
  lysosomal intensity (lysosomal acidification): lysosomal intensity was increased
[1]; 24 hours
  lysosomal intensity (lysosomal acidification): no difference
CREB
  pCREB (S133) in hippocampus: performed markedly better than LP1
  pCREB (S133) in striatum: performed markedly better than LP1
[2]; 1 uM P1, without STO-609
  phosphorylation of AMPK (T172): significantly increased phosphorylation
  phosphorylation of CREB (S133): significantly increased phosphorylation
[2]; pre-treated with 5 uM STO-609 for 1 hour
  P1-induced activation of AMPK: loss of P1-induced activation of AMPK
[2]; pre-treated with 5 uM STO-609 for 1 hour, compared to P1-treated cells only
  CREB activation by P1: lowered but not totally abolished
[3]
  number of branches per neuron: increased branching
[4]; 2 μM
  plasma binding: very low plasma binding
[4]; read-out: compound unbound in plasma
  fraction unbound at 30 min, 2 μM: > 0.75
[5]; 1 mM P1, 4° C.
  stability in buffer (amount remaining, LCMS): no stability issues
[5]; 1 mM P1, 25° C.
  stability in buffer (amount remaining, LCMS): could affect stability after 4 days
[5]; 1 mM P1, −20° C.
  stability in buffer (amount remaining, LCMS): no stability issues
[6]
  clearance and stability in liver microsomes: low clearance and high stability
[7]; 8 to 12 weeks of age, at 12 weeks
  average increase of brain weight: 14 mg
[7]; week 8-12
  motor function, clasping: tendency to improve motor functions
  motor function, rotarod: tendency to improve motor functions
[7]; [9]
  distance travelled, open field: significantly higher
  rearing frequency, open field: significantly higher
[8]
  clearance and stability in liver microsomes: low clearance and high stability
